The experiment relates to plasma cGMP. As to the kind of experiment: In vivo monkey studies, plasma cGMP ELISA. Also on record: species or system male cynomolgus monkeys. As to conditions: for Net cGMP (nM) Change from Baseline 0.083 h: 0.083 h postdose; for Net cGMP (nM) Change from Baseline 0.083 h / Net cGMP (nM) Change from Baseline 0.25 h / Net cGMP (nM) Change from Baseline 0.5 h / Net cGMP (nM) Change from Baseline 1 h / Net cGMP (nM) Change from Baseline 2 h / Net cGMP (nM) Change from Baseline 4 h / Net cGMP (nM) Change from Baseline 8 h / Net cGMP (nM) Change from Baseline 12 h / Net cGMP (nM) Change from Baseline 24 h / Net cGMP (nM) Change from Baseline 36 h / Net cGMP (nM) Change from Baseline 48 h / Net cGMP (nM) Change from Baseline 72 h / Net cGMP (nM) Change from Baseline 96 h / Net cGMP (nM) Change from Baseline 120 h / Net cGMP (nM) Change from Baseline 144 h / Net cGMP (nM) Change from Baseline 168 h: monkey plasma; for Net cGMP (nM) Change from Baseline 0.25 h: 0.25 h postdose; for Net cGMP (nM) Change from Baseline 0.5 h: 0.5 h postdose; for Net cGMP (nM) Change from Baseline 1 h: 1 h postdose; for Net cGMP (nM) Change from Baseline 2 h: 2 h postdose; for Net cGMP (nM) Change from Baseline 4 h: 4 h postdose; for Net cGMP (nM) Change from Baseline 8 h: 8 h postdose; for Net cGMP (nM) Change from Baseline 12 h: 12 h postdose; for Net cGMP (nM) Change from Baseline 24 h: 24 h postdose; for Net cGMP (nM) Change from Baseline 36 h: 36 h postdose; for Net cGMP (nM) Change from Baseline 48 h: 48 h postdose; for Net cGMP (nM) Change from Baseline 72 h: 72 h postdose; for Net cGMP (nM) Change from Baseline 96 h: 96 h postdose; for Net cGMP (nM) Change from Baseline 120 h: 120 h postdose; for Net cGMP (nM) Change from Baseline 144 h: 144 h postdose; for Net cGMP (nM) Change from Baseline 168 h: 168 h postdose; for net cGMP levels (result in words): monkeys, single SC dose, plasma. On the procedure: In vivo monkey studies were conducted as described in detail below. Young adult-to-adult male cynomolgus monkeys were given a single dose subcutaneously (SC). Blood was collected predose and at various pre-determined timepoints throughout the study period. Aliquot of cynomolgus monkey plasma was received for cyclic cGMP (cGMP) measurement and stored at −80° C. prior to use.
Control plasma was made for determining the recovery rate of spike-in cGMP using Enzo cGMP complete ELISA kit (Enzo Life Sciences, Inc, Farmingdale, NY, cat no. ADI-901-164). Briefly, blood from male Sprague Dawley rats (Inotiv, Indianapolis, IN), about 7 months old, was collected in a BD Vacutainer EDTA tube (Becton Dickinson, Franklin Lakes, NJ, cat no. BD-367856) with volume of approximate 4 mL through retro orbital bleeding. Plasma was prepared by spinning the tube in an Eppendorf Refrigerated Centrifuge 5810R (Brinkman Instruments, Inc, Westbury, NY) at 3500 rpm (3000×g) for 10 min at 4° C. Plasma was collected as Positive Control plasma. Cyclic GMP (cGMP standard from Enzo cGMP complete ELISA kit) was added to the positive control plasma at a final concentration of additional 40 nM. Positive Control and Spiked-in Control plasma were aliquoted and stored at −80° C.
The cGMP content was measured using the Enzo cGMP complete ELISA kit following the manufacturer's directions with modifications as described below. The cGMP standards provided in the kit were diluted 1:3 ranging from 50 nM to 0.023 nM in 1× assay buffer that was diluted in water from 2× assay buffer provided in the kit. The cGMP standards ([…]) were transferred to a 96-well polypropylene plate (Thermo Scientific, cat no. 442587).
Plasma samples were thawed from −80° C. and diluted 1:20 in 1× assay buffer in the above plate with a final volume of 150 μL. Assay buffer was added (150 μL) for both a non-specific binding control (in the absence of cGMP antibody) and a maximum binding control (in the absence of competing cGMP) in duplicate wells. Positive Control and Spiked-in Control plasma were diluted 1:20 in 1× assay buffer with a final volume of 150 μL in duplicate wells of the above plate. All diluted plasma was mixed by pipetting up and down several times.
Acetylation reagent mix was prepared by adding 1-part of acetic anhydride into 2-parts of triethylamine provided in the kit and mixing well using Vortex (Scientific Industries, Inc, Bohemia, NY). All controls, standards, and plasma samples were acetylated by adding 15 μL of acetylation reagent mix into the plate, one column at a time, and shaking for 1 min on a Titer Plate Shaker (Lab-Line Instrument, Inc., Melrose Park, IL) at room temperature. The plate was shaken for an additional 1 min following the acetylation of the last column to ensure the reaction was completed.
Acetylated controls, standard and plasma samples were transferred (100 μL) to an ELISA plate (n=1). Then 50 μL of cGMP conjugate were added to each well followed by the addition of 50 μL cGMP antibody to each well except for two non-specific binding wells, in which 50 μL of 1× assay buffer were added. The plate was then sealed and shaken for 2 h at room temperature on the plate shaker. Following this incubation, the plate was washed five times using 200 μL of 1× wash buffer diluted in water from 5× wash buffer provided in the kit. Then, 200 μL of para-Nitrophenylphosphate (pNpp) were added to each well. The plate was sealed with a new plate sealer and shaken in dark for 1 h at room temperature on the plate shaker. Finally, 50 μL of stop solution were added to each well to stop the enzyme reaction. The plate was then read at 405 nm using SpectraMax Plus (Molecular Devices, San Jose, CA).
The mean absorbance at 405 nm (O.D. 405 nm) for the non-specific binding controls was subtracted from the O.D. 405 nm of all samples. The subtracted O.D. 405 nm of all samples were then normalized with the mean subtracted O.D. 405 nm of the maximum binding controls as B/B0%. […]

Numbered stars: 1 amine (or outer) side, 2 acyl side, 3 side chain; on linkers, the order of the positions; unused ones are H or OH. Bridge positions count the residues as written; N and C are the ends. Square brackets hold non-standard residues; d marks the D form. * marks the point of attachment. C20 diacid = O=C(O)CCCCCCCCCCCCCCCCCCC(=O)*; γGlu = O=C(O)[C@H](CCC(=O)[*:2])N[*:1]; Dap = NC[C@H](N)C(=O)O; CH2 = C([*:1])[*:2]

For “{C20 diacid-γGlu}-EKEKEKGEKPRSSCFG[Dap]RIDRIGHYSGLGCPSFRHGSPSSGAPPPS-NH2 (linker 14-30 via CH2) [Example 136]”, the “net cGMP levels (result in words)” value is recorded as “increased net cGMP levels”. Also, for the setting “dose 50 nmol/kg”, the “Net cGMP (nM) Change from Baseline 0.083 h” value stood at 3.25 nM, the “Net cGMP (nM) Change from Baseline 0.25 h” value was 12.48 nM, the “Net cGMP (nM) Change from Baseline 0.5 h” value was found to be 20.78 nM and the “Net cGMP (nM) Change from Baseline 1 h” value is 12.12 nM. In addition, for the setting “dose 50 nmol/kg”, the “Net cGMP (nM) Change from Baseline 2 h” value was 9.42 nM, the “Net cGMP (nM) Change from Baseline 4 h” value is 8.76 nM, the “Net cGMP (nM) Change from Baseline 8 h” value is 7.65 nM and the “Net cGMP (nM) Change from Baseline 12 h” value came to 7.65 nM. Besides, under “dose 50 nmol/kg”, the “Net cGMP (nM) Change from Baseline 24 h” value is reported as 11.83 nM, the “Net cGMP (nM) Change from Baseline 36 h” value turned out to be 11.18 nM, the “Net cGMP (nM) Change from Baseline 48 h” value is reported as 5.65 nM and the “Net cGMP (nM) Change from Baseline 72 h” value turned out to be 2.61 nM. Further, under “dose 50 nmol/kg”, the “Net cGMP (nM) Change from Baseline 96 h” value came to 2.05 nM, the “Net cGMP (nM) Change from Baseline 120 h” value is 2.71 nM, the “Net cGMP (nM) Change from Baseline 144 h” value stood at 3.72 nM and the “Net cGMP (nM) Change from Baseline 168 h” value came out at 3.36 nM.
Take `CC[C@H](C)[C@@H]1NC(=O)[C@H](CCCNC(=N)N)NC(=O)[C@H](CC(=O)O)NC(=O)[C@H]([C@@H](C)CC)NC(=O)[C@H](CCCNC(=N)N)NC(=O)[C@H](CCCCN)NC(=O)CNC(=O)[C@H](Cc2ccccc2)NC(=O)[C@@H](NC(=O)[C@H](CO)NC(=O)[C@H](CO)NC(=O)[C@H](CCCNC(=N)N)NC(=O)CCNC(=O)[C@H](CCCCN)NC(=O)[C@H](CCC(=O)O)NC(=O)COCCOCCNC(=O)COCCOCCNC(=O)COCCOCCNC(=O)COCCOCCNC(=O)COCCOCCNC(=O)COCCOCCNC(=O)CNC(=O)[C@H](CCCCN)NC(=O)[C@H](CCC(=O)O)NC(=O)[C@H](CCCCN)NC(=O)[C@H](CCC(=O)O)NC(=O)[C@H](CCCCN)NC(=O)[C@H](CCC(=O)O)NC(=O)CC[C@H](NC(=O)CCCCCCCCCCCCCCCCCCC(=O)O)C(=O)O)CSCSC[C@@H](C(=O)N2CCC[C@H]2C(=O)N[C@@H](CO)C(=O)N[C@@H](Cc2ccccc2)C(=O)N[C@@H](CCCNC(=N)N)C(=O)N[C@@H](Cc2c[nH]cn2)C(=O)NCC(=O)NCC(=O)N[C@@H](CCCCN)C(=O)N[C@@H](CO)C(=O)N[C@@H](CO)C(=O)NCC(=O)N[C@@H](C)C(=O)N2CCC[C@H]2C(=O)N2CCC[C@H]2C(=O)N2CCC[C@H]2C(=O)N[C@@H](CO)C(N)=O)NC(=O)CNC(=O)[C@H](CC(C)C)NC(=O)CNC(=O)[C@H](CO)NC(=O)[C@H](CCC(N)=O)NC(=O)[C@H](Cc2c[nH]cn2)NC(=O)CNC1=O` [Example 89]: the “net cGMP levels (result in words)” value is reported as “increased net cGMP levels”. Further, where the note is “dose 100 nmol/kg”, the “Net cGMP (nM) Change from Baseline 0.083 h” value was 6.83 nM, the “Net cGMP (nM) Change from Baseline 0.25 h” value was found to be 20.73 nM, the “Net cGMP (nM) Change from Baseline 0.5 h” value came out at 33.07 nM and the “Net cGMP (nM) Change from Baseline 1 h” value was determined as 35.04 nM. For the setting “dose 100 nmol/kg”, the “Net cGMP (nM) Change from Baseline 2 h” value amounted to 36.11 nM, the “Net cGMP (nM) Change from Baseline 4 h” value is 42.86 nM, the “Net cGMP (nM) Change from Baseline 8 h” value is on record as 36.71 nM and the “Net cGMP (nM) Change from Baseline 12 h” value was 33.87 nM. For the setting “dose 100 nmol/kg”, the “Net cGMP (nM) Change from Baseline 24 h” value was 30.9 nM, the “Net cGMP (nM) Change from Baseline 36 h” value came out at 24.59 nM, the “Net cGMP (nM) Change from Baseline 48 h” value is recorded as 16.29 nM and the “Net cGMP (nM) Change from Baseline 72 h” value worked out at 15.56 nM. In addition, where the note is “dose 100 nmol/kg”, the “Net cGMP (nM) Change from Baseline 96 h” value is given as 12.74 nM, the “Net cGMP (nM) Change from Baseline 120 h” value was 18.95 nM, the “Net cGMP (nM) Change from Baseline 144 h” value was found to be 12.03 nM and the “Net cGMP (nM) Change from Baseline 168 h” value came out at 8.03 nM.

Source of the values: patent US20240174727A1, “LONG-ACTING NATRIURETIC PEPTIDES AND USES THEREOF” (Eli Lilly and Company, priority 2022, published 2024).
